Test results reported in ChEMBL document CHEMBL1201862, “PubChem BioAssay data set” (2004).
Active and inactive are the calls of the source.

Experiments:
[1] = tested on: Streptococcus sp. 'group A'; assay: growth inhibition of control SK(-) GAS strain, dose response, counter-screen for streptokinase expression inhibitor project, luminescence, kanamycin, BacTiterGlo, confirmation (AID 1900); format: functional, organism-based
[2] = tested on: Streptococcus; assay: Group A Streptococcus viability loss, dose response, counter-screen for streptokinase expression inhibitor project, luminescence, BacTiterGlo (AID 1915); format: functional, organism-based;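 note: potency for reduction of bacterial viability or growth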
[3] = cytotoxicity toward NIH3T3 fibroblasts, dose response, counter-screen, cell-based, ATP luminescence, mouse fibroblasts (AID 2010); format: functional; settings: NIH3T3;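 note: cells exposed to compound for about 90 hours before reading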
[4] = inhibitors of intracellular T. cruzi replication, confirmation, NIH3T3 host cells, beta-gal luminescence (AID 2044); format: functional, cell-based;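 note: intracellular parasites grown in NIH/3T3 mouse fibroblasts as host cells; luminescent beta-galactosidase reporter signal from transgenic T. cruzi replicating inside host cells; inhibitors lower the luminescence signal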
[5] = molecular target: Cytochrome P450 2C19 (Homo sapiens, UniProt P33261); assay: Cytochrome panel assay with activity outcomes. Panel member name: p450-cyp2c19 Compounds with AC50 equal or less than 10 uM are considered active; format: functional
Cytochrome P450 2C19, sequence (P33261 whole entry): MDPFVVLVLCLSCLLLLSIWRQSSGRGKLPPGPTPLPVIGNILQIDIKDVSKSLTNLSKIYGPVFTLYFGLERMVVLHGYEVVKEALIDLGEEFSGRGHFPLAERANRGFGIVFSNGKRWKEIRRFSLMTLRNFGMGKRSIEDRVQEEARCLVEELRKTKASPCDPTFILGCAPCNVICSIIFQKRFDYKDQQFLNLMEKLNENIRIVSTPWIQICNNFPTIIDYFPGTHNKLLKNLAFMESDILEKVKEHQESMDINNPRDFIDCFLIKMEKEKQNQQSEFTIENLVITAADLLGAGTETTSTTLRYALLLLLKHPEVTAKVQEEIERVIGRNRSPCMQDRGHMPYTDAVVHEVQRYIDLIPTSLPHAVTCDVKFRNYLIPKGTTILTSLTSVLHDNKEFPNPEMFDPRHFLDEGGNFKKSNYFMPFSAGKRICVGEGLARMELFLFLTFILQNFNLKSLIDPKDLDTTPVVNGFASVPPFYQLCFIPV

For Cc1cc(Cl)ccc1N=C(S)NCCC(c1ccccc1)c1ccccc1, the EC50 [1] was 5.18 µM (active) and the EC50 [2] was 30.3 µM (active).
In the case of CCN1CCCc2cc(CN(CCN3CCOCC3)C(S)=Nc3ccc(OC)c(Cl)c3)ccc21, the EC50 [3] is reported as > 60 µM (not active) and the EC50 [4] is reported as 1.63 µM (active).
In the case of COc1ccc(Nc2nnc(-c3ccc(O)cc3)c3ccccc23)cc1, the EC50 [3] is reported as > 60 µM (not active) and the EC50 [4] is reported as 3.48 µM (active).
With COc1ccc(C(CNC(=O)c2oc3ccc(Br)cc3c2C)N2CCCCC2)cc1 (stereo unspecified) the EC50 [3] was > 60 µM (not active) and the EC50 [4] was 2.37 µM (active).
With O=C(c1ccco1)N1CCN(C(=O)c2nn3cccnc3c2Cl)CC1 the AC50 [5] was “inconclusive”.
For C=CC[n+]1c(-c2ccc(C)cc2)csc1Nc1c(C)n(C)n(-c2ccccc2)c1=O, the EC50 [3] was > 60 µM (not active) and the EC50 [4] was 4.99 µM (active).
With Clc1ccc(-c2[nH]nc3c2CCC3)c(Cl)c1 the EC50 [1] was 16.8 µM (active) and the EC50 [2] was > 150 µM (not active).
For NC(=O)c1csc(-c2ccc(CO)o2)n1, the AC50 [5] was “inconclusive”.
In the case of CCN(CC)c1nc(-c2ccccc2)ncc1S(=O)(=O)c1ccc(C)cc1, the EC50 [3] is reported as > 60 µM (not active) and the EC50 [4] is reported as 2.65 µM (active).
For CCNC(=S)N/N=C/c1cccc(OCc2c(F)cccc2Cl)c1, the EC50 [3] was > 30 µM (not active) and the EC50 [4] was 1.15 µM (active).
With Cc1c(C)c(C)c2[nH]c(-c3ccc4c(c3)OCO4)nc2c1C the EC50 [3] was > 30 µM (not active) and the EC50 [4] was 1.45 µM (active).
In the case of O=C(O)CC[C@@H](NC(=O)c1ccccc1C(=O)O)C(=O)O, the AC50 ([5]; read-out: AC50) is reported as 0.0251 µM (inconclusive).
With CC1(C)CC(O)CC(C)(C)N1CC(O)COCCOc1ccc(Br)cc1 (stereo unspecified) the AC50 [5] was “inconclusive”.
With COc1ccc(C(=O)N2CCC3(CCCN(c4ccccn4)C3)CC2)cc1 the AC50 ([5]; read-out: AC50) was 25.1 µM (inconclusive).
For CCC(c1nnnn1C(C)(C)C)N(Cc1cccs1)Cc1cc2cc(C)c(C)cc2n2nnnc12 (stereo unspecified), the EC50 [3] was > 60 µM (not active) and the EC50 [4] was 1.02 µM (active).
In the case of CC(=O)Nc1c(C)nn(-c2ccc(C)c(C)c2)c1C, the AC50 ([5]; read-out: AC50) is reported as 39.8 µM (inconclusive).
In the case of COC(=O)C1(C)C=C2C(=C(c3ccccc3)C(=O)C2C)CN1 (stereo unspecified), the AC50 ([5]; read-out: AC50) is reported as 39.8 µM (inconclusive).
In the case of CN(c1ccccc1)S(=O)(=O)c1ccc(C(=O)Nc2ccncc2)cc1, the EC50 [3] is reported as > 60 µM (not active) and the EC50 [4] is reported as 1.18 µM (active).
In the case of Cc1ccccc1C(=O)Nc1ccc(C(=O)NNC(=O)CCCOc2ccc(Cl)cc2Cl)cc1, the AC50 ([5]; read-out: AC50) is reported as 17.8 µM (inconclusive).
With CCCCNC(=O)NS(=O)(=O)c1ccc(C(=O)OC(C)C)o1 the AC50 ([5]; read-out: AC50) was 39.8 µM (inconclusive).
For CCCc1nnc(SCC(=O)N2CCCCC2)n1CC1CCCO1 (stereo unspecified), the AC50 ([5]; read-out: AC50) was 17.8 µM (inconclusive).
With CC(C)c1csc(CN2CCC(CO)(Cc3cccc(F)c3)CC2)n1 the EC50 [3] was > 60 µM (not active) and the EC50 [4] was 1.09 µM (active).
With CCC1CCCCN1c1nc(-c2ccncc2)nc2ccccc12 (stereo unspecified) the EC50 [3] was 6.4 µM (active) and the EC50 [4] was 0.521 µM (active).
